The record followed here is patent US6169087A, “Modulators of protein tyrosine phosphatases (PTPases)” (Novo Nordisk A/S, priority 1998, dated 2001).

The assay concerns the target T1, truncated form of PTP1B (corresponding to the first 321 amino acids) (Homo sapiens, UniProt P18031).
T1 construct: truncated form of PTP1B (corresponding to the first 321 amino acids); made in house; host or cells: E. coli
T1 sequence (P18031 1-321): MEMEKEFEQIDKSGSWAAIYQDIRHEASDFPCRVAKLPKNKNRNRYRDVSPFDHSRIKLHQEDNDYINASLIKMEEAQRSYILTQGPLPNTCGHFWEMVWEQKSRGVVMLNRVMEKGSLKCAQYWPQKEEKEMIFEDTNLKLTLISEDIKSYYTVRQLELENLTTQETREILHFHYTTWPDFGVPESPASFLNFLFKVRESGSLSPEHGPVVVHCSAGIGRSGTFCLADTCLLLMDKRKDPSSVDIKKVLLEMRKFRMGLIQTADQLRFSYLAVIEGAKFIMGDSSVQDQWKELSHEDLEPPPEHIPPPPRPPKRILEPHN
The assay is described as follows: Inhibition of classical PTP1B, p-nitrophenyl phosphate enzyme assay. Particulars: substrate p-nitrophenyl phosphate 0.16 to 10 mM; 100 mM sodium acetate pH 5.5; 25° C., 60 minutes; absorbance at 405 nm; read-out: PTP1B K1 values. It is filed as biochemical. As to the method: These compounds were evaluated for biological activity with a truncated form of PTP1B (corresponding to the first 321 amino acids), which was expressed in E. coli and purified to apparent homogeneity using published procedures well-known to those skilled in the art. The enzyme reactions were carried out using standard conditions essentially as described by Burke et al. (Biochemistry 35; 15989-15996 (1996)). The assay conditions were as follows. Appropriate concentrations of the compounds of the invention were added to the reaction mixtures containing different concentrations of the substrate, p-nitrophenyl phosphate (range: 0.16 to 10 mM--final assay concentration). The buffer used was 100 mM sodium acetate pH 5.5, 50 mM sodium chloride, 0.1% (w/v) bovine serum albumin and 5 mM dithiothreitol (total volume […]). The reaction was started by addition of the enzyme and carried out in microliter plates at 25° C. for 60 minutes. The reactions were stopped by addition of NaOH. The enzyme activity was determined by measurement of the absorbance at 405 nm with appropriate corrections for absorbance at 405 nm of the compounds and p-nitrophenyl phosphate. The data were analyzed using nonlinear regression fit to classical Michaelis Menten enzyme kinetic models. Inhibition is expressed as Ki values in μM.

In the case of `CCSc1nn(-c2ccc(OC)cc2)c(=O)c2c(N)scc12` [Example 2, 7-Amino-4-ethylsulfanyl-2-(4-methoxy-phenyl)thieno[3,4-d]pyridazin-1(2H)-one], the Ki stood at 2 µM.
Regarding `Nc1scc2c1c(=O)oc1ccc3ccccc3c12` [Example 3, 3-Amino4H-naphtho[2,1-b]thieno[3,4-d]pyran-4-one], the Ki came to 4 µM.
